Test results from patent publication US9504676B2, “Molecules inhibiting a metabolic pathway involving the Syk protein tyrosine kinase and method for identifying said molecules” (CENTRE NATIONAL DE LA RECHERCHE SCIENTIFIQUE, priority 2008, dated 2016).
Like-named read-outs stand apart in the source and are kept apart here.

Legend:
Syk protein = target: T1, Syk protein (UniProt P48025); assay: In vitro affinity for Syk by fluorescence spectroscopy (spectrofluorometry); format: binding; conditions: read-out: Kd: dissociation constant with respect to Syk
T1 construct: none given for this test; fused on or other part: probably GST at the N-terminus (GST:Syk 6-242), if the ADA protein was also used here
Description: The dissociation constant of the molecules according to the invention with respect to Syk protein may particularly be measured in vitro by means of fluorescence spectroscopy (or spectrofluorometry).
Finally, the in vitro affinity of the molecule C-13 and some of the 87 molecules mentioned above for Syk protein was measured by means of fluorescence spectroscopy (or spectrofluorometry) and is expressed by the dissociation constant (or Kd) in μmole/liter (μM).

RBL-2H3 cells = assay: cells; format: cell-based, rat; conditions: for IC50: Rattus norvegicus
Procedure, shortened: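 RBL-2H3 rat basophils sensitized 12-16 h with anti-DNP IgE (0.5 μg/ml), pretreated 90 min at 37° C with compound (DMF 0.25% vehicle), then stimulated 45 min with DNP-BSA (50 ng ml^−1) or ionomycin (1.5 μM). Degranulation read as β-hexosaminidase release.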

mast cells = assay: Early and delayed mast cell responses induced by FcεRI aggregation; format: cell-based
Description: Binding of Btk and Vav with SLP-76 is critical for regulating PLC-γ activity on the membrane, calcium mobilisation and granule exocytosis^27, 28.
• 1) Chemical products and antibodies. A chemical bank of 3000 molecules (a varied subset) was acquired from ChemBridge, Inc. (San Diego, Calif.). Stocks of solutions of small molecules were prepared at a rate of 10 mM in DMSO (dimethylsulphoxide), except for C-13 (methyl 2-{5-[(3-benzyl-4-oxo-2-thioxo-1,3-thiazolidin-5-ylidene)methyl]-2-furyl}benzoate, ChemBridge ID No. 6197026) prepared in DMF (dimethylformamide). Unless specified otherwise, all the reagents were supplied by Sigma. Dinitrophenyl (DNP) hapten was acquired from Calbiochem. […] The binding of G4G11 with Syk was assessed by adding the 9E10 monoclonal antibody conjugated with HRP detecting the amino acid sequence EQKLISEEDLN of human c-myc protein located at the C-terminal end of the scFv fragment. To generate Syk mutants, targeted mutagenesis was used on GST:Syk 6-242 protein and the binding of G4G11 with the mutants was assessed in the presence of 5 μM of C-13. • 3) Cells, culture conditions and functional tests. […] The level of β-hexosaminidase released was measured 10 min later and the TNF-α titration was performed by means of a cytotoxicity test on L929 cells as described previously^10, 3 hours after stimulation. […]

[1] = RBL-2H3 cells, read-out: Degran. IC50: concentration inhibiting mast cell degranulation by 50%
[2] = RBL-2H3 cells, 0 to 40 μM, read-out: concentration inhibiting mast cell degranulation by 50% in vitro

Row | Kd (Syk protein) | IC50 (RBL-2H3 cells; [1]) | Structure (SMILES) | other results
1 | 5 µM | > 10 µg/mL | O=C(C1=C(O)C(=O)N(Cc2cccnc2)C1c1cccc(Oc2ccccc2)c1)c1ccc(Cl)cc1 (stereo not drawn) [Molecule 1, 4-(4-chlorobenzoyl)-3-hydroxy-5-(3-phenoxyphenyl)-1-(3-pyridinylmethyl)-1,5-dihydro-2H-pyrrol-2-one] | 
2 | 6.1 µM | > 10 µg/mL | CCOC(=O)c1ccc(N2C(=O)C(O)=C(C(=O)c3ccccc3)C2c2ccc(ON)cc2OC)cc1 (stereo not drawn) [Molecule 6] | 
3 | 5.6 µM | ~2.5 µg/mL | COc1ccccc1C(=O)Nc1ccc(-c2nnc(SCC(=O)c3ccccc3)n2C)cc1 [Molecule 15, 2-methoxy-N-(4-(4-methyl-5-[(2-oxo-2-phenylethyl)thio]-4H-1,2,4-triazol-3-yl)phenyl)benzamide] | 
4 | 17.9 µM | > 10 µg/mL | COc1ccc(C)cc1NC(=O)c1ccc(CN2CCC(Cc3ccccc3)CC2)cc1 [Molecule 17, 4-[(4-benzyl-1-piperidinyl)methyl}-N-(2-methoxy-5-methylphenyl)benzamide] | 
5 | 0.8 µM | > 10 µg/mL | COc1ccc(S(=O)(=O)N(CCc2ccccc2)CC(=O)Nc2ccc(C(N)=O)cc2)cc1 [Molecule 18] | 
6 | 5.5 µM | ~10 µg/mL | Cc1cc(C(=O)Nc2ccccc2C(=O)O)ccc1NC(=O)COc1ccc(C(C)C)cc1 [Molecule 49, 2-[(4-{[(4-isopropylphenoxy)acetyl]amino}-3-methylbenzoyl)amino] benzoic acid] | 
7 | 1.6 µM | ~5 µg/mL | CCOC(=O)c1ccc(NC(=O)CSc2nnc(-c3ccco3)c(-c3ccco3)n2)cc1 [Molecule 54, ethyl 4-({[(5,6-di-2-furyl-1,2,4-triazin-3-yl)thio]acetyl}amino)benzoate] | 
8 | 8.2 µM | ~2 µg/mL | COc1cc(-c2nnc(SCC(=O)Nc3ccc(Cl)cc3)n2CCc2ccccc2)cc(OC)c1OC [Molecule 59] | IC50 (RBL-2H3 cells; [2]): ~5 µM
9 | 21.8 µM | ~2 µg/mL | CCOC(=O)c1ccc(NC(=O)CC2C(=O)N(c3ccc(Cl)cc3)C(=S)N2Cc2cccnc2)cc1 (stereo not drawn) [Molecule 61] | IC50 (RBL-2H3 cells; [2]): ~5 µM
10 | 8 µM | ~5 µg/mL | C=CCn1c(SCC(=O)Nc2cccc(OC)c2)nnc1C(C)NC(=O)c1ccccc1 (stereo not drawn) [Molecule 66, N-{1-[4-allyl-5-({2-[(3-methoxyphenyl)amino]-2-oxoethyl}thio)-4H-1,2,4-triazol-3-yl]ethyl} benzamide] | 
11 | 4.8 µM | ~5 µg/mL | C=CCn1c(CNC(=O)c2cccc(C)c2)cnc1SCC(=O)Nc1cccc(C(=O)OC(C)C)c1 [Molecule 75] | 
12 | 3.2 µM | ~7 µg/mL | CCn1c(CCC(=O)c2ccc(Cl)cc2)nnc1SCC(=O)Nc1ccc(Br)c(C)c1C [Molecule 82] | 

Further lines, the compound ahead of its results:

Row | Structure (SMILES) | Kd (Syk protein) | IC50 (RBL-2H3 cells; [1]) | other results
13 | COc1ccc(C2C(C(=O)c3cccs3)=C(O)C(=O)N2CCCn2ccnc2)c(OC)c1 (stereo not drawn) [Molecule 2] | 16.3 µM | > 10 µg/mL | 
14 | CCOC(=O)C1=C(C)NC2=C(C(=O)c3ccccc32)C1c1cc(Br)ccc1OCC(=O)O (stereo not drawn) [Molecule 3, {4-bromo-2-[3-(ethoxy carbonyl)-2-methyl-5-oxo-4,5-dihydro-1H-indeno[1,2-b]pyridin-4-yl]phenoxy} acetic acid] | 6.2 µM | > 10 µg/mL | 
15 | COc1cccc(C2C(C(=O)c3ccc(C)cc3)=C(O)C(=O)N2CCCN2CCOCC2)c1 (stereo not drawn) [Molecule 4, 3-hydroxy-5-(3-methoxyphenyl)-4-(4-methylbenzoyl)-1-[3-(4-morpholinyl)propyl]-1,5-dihydro-2H-pyrrol-2-one] | 9.4 µM | > 10 µg/mL | 
16 | CCOC(=O)c1sc(N2C(=O)C(O)=C(C(=O)c3ccc(F)cc3)C2c2ccc(C)cc2)nc1C (stereo not drawn) [Molecule 10, ethyl 2-[3-(4-fluorobenzoyl)-4-hydroxy-2-(4-methylphenyl)-5-oxo-2,5-dihydro-1H-pyrrol-1-yl]-4-methyl-1,3-thiazole-5-carboxylate] | 6.3 µM | ~10 µg/mL | 
17 | O=C(NCc1nnc(NCc2nc3ccccc3c(=O)[nH]2)n1-c1ccccc1)c1ccccc1F [Molecule 29] | 6.7 µM | ~10 µg/mL | 
18 | O=C(Nc1ccccc1)c1ccc(NCCN2CCOCC2)c(S(=O)(=O)N2CCOCC2)c1 [Molecule 46, 4-{[2-(4-morpholinyl)ethyl]amino}-3-(4-morpholinylsulphonyl)-N-phenylbenzamide] | 3 µM | > 10 µg/mL | 
19 | CCOc1ccc(NC(=O)CC2C(=O)N(c3ccc(OC)cc3)C(=S)N2CCN2CCOCC2)cc1 (stereo not drawn) [Molecule 84, N-(4-ethoxyphenyl)-2-{1-(4-methoxyphenyl)-3-[2-(4-morpholinyl)ethyl]-5-oxo-2-thioxo-4-imidazolidinyl}acetamide] | 15.6 µM | ~7 µg/mL | 
20 | COC(=O)c1ccccc1-c1ccc(/C=C2/SC(=S)N(Cc3ccccc3)C2=O)o1 [Molecule C-13, methyl 2-{5-[(3-benzyl-4-oxo-2-thioxo-1,3-thiazolidin-5-ylidene)methyl]-2-furyl}benzoate] | 4.8 ± 0.2 µM |  | IC50 (mast cells; read-out: estimated IC50, delayed mast cell response (TNF-α secretion)): ~2 µM; IC50 (mast cells; read-out: estimated IC50, early mast cell response (β-hexosaminidase release)): ~2 µM; ionomycin-induced degranulation (RBL-2H3 cells): not detectably affected; IC50 (RBL-2H3 cells; RBL-2H3, read-out: Degran. IC50: concentration inhibiting mast cell degranulation by 50%): 1 µg/mL
